Laboratory results from patent publication US10406207B2, “Peptide conjugates of GLP-1 receptor agonists and gastrin and their use” (priority 2010, dated 2019).
Square brackets hold non-standard residues; d marks the D form. Peptide text beside a SMILES is read from it. Orn = NCCC[C@H](N)C(=O)O; AEEA = NCCOCCOCC(=O)O

Tests used:
[1] = molecular target: T1, human GLP-1 R (Homo sapiens, UniProt P43220); assay: Human GLP-1 receptor efficacy assay (cAMP induction, FlashPlate); assay type: cell-based; conditions: Table 2; read-out: hGLP-1 R EC50
T1 construct: expressed in transfected cells
T1 sequence (P43220 24-463): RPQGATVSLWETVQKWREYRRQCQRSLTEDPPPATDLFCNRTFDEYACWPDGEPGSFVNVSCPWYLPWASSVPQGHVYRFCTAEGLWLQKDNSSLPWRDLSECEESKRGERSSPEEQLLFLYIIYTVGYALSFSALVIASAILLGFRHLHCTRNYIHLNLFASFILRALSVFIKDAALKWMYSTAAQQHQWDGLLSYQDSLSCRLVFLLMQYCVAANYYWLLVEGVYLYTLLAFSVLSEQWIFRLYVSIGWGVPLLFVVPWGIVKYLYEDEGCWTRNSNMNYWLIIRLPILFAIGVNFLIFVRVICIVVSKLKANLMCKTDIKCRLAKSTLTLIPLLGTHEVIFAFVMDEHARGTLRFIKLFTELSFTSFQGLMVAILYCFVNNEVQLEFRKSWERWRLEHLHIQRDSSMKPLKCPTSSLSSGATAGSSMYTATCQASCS
Method: On the day of analysis, growth medium was removed and the cells were washed once with 200 μl Tyrode buffer [Tyrode's Salts (9.6 g/l), 10 mM HEPES, pH 7.4]. […] The reaction was stopped by addition of 25 μl 0.5 M HCl and incubated on ice for 60 min.

[2] = molecular target: T2, human CCK-B R (Homo sapiens, UniProt P32239); assay: Human CCK-B receptor efficacy assay (AlphaScreen SureFire p-ERK); assay type: cell-based; conditions: Table 2; read-out: hCCK-B R EC50
T2 construct: expressed in transfected cells
T2 sequence (P32239 1-447): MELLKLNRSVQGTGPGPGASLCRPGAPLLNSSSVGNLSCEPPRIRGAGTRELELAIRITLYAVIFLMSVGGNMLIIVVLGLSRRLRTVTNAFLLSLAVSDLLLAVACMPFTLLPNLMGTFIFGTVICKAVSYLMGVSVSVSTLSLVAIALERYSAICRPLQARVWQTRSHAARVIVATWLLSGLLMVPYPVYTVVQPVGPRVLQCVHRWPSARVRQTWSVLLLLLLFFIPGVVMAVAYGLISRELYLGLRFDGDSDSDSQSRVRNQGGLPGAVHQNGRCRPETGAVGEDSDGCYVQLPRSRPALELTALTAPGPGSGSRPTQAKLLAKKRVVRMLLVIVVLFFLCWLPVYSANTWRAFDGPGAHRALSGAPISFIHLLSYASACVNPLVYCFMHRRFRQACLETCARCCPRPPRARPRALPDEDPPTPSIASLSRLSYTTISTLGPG
Method: CCK-B Receptor (CCK-B R) Efficacy Assay:
In vitro effects of peptide conjugates of the invention were estimated by measuring p-ERK (using the AlphaScreen™ SureFire p-ERK assay) in HEK293 cells stably expressing the human and mouse CCK-B R (high-affinity Gastrin receptor), respectively. The Gastrin receptor efficacy assays (AlphaScreen™ SureFire p-ERK assay) were performed as follows:
The CCK-B R expressing cells in question were seeded at 20,000 cells/well in 100 μl growth medium [DMEM, 10% FCS, Penicillin (100 IU/ml), Streptomycin (100 μg/ml)] in a 96-well plate coated with poly-D-lysine. The cells were incubated in an incubator (37° C., 5% 002) for two days.
The growth medium was changed to 80 μl of serum-free medium [DMEM, Penicillin (100 IU/ml), Streptomycin (100 μg/ml)] per well, and incubation of the cells was continued for 19 hours in the incubator (37° C., 5% CO2).
After 19 hours, 20 μl of serum-free medium containing one of 5 different concentrations of peptide conjugate was added (performed in triplicate for each concentration), and the cells were incubated for 5 min. at room temperature. • 2. The stimulation medium was discarded by quickly turning the plate upside down, and 60 μl 1× lysis buffer (from the SureFire assay kit) was added per well. • 3. The plate was shaken on a plate-shaker for 5 min and then placed on ice. • 4. SureFire P-ERK assay: 4 μl of each supernatant was transferred to a 384 well proxiplate (Perkin Elmer). • 5. 4 μl of each of the two control lysates (unstimulated and stimulated) were added to the proxiplate in duplicate. • 6. […] 7 μl of the latter reaction buffer+activation buffer+beads per well were added in the proxiplate, the mix being resuspended carefully before addition to the wells. • 7. The plate was incubated for 2 hours in a dark box in a 22° C. incubator. • 8. The plate was analyzed on an Envision™ light-emission plate reader (Perkin-Elmer) using the appropriate reading program (Perkin-Elmer).

| Compound | EC50 [1] [nM] | EC50 [2] [nM] |
| --- | --- | --- |
| CC[C@H](C)[C@H](NC(=O)[C@H](Cc1ccccc1)NC(=O)[C@H](CC(C)C)NC(=O)[C@H](CCCNC(=N)N)NC(=O)[C@@H](NC(=O)[C@H](C)NC(=O)[C@H](CCC(=O)O)NC(=O)[C@H](CCC(=O)O)NC(=O)[C@H](CCC(=O)O)NC(=O)[C@H](CC(C)C)NC(=O)[C@H](Cc1ccc(O)cc1)NC(=O)[C@H](CCCCN)NC(=O)[C@H](CO)NC(=O)[C@H](CC(C)C)NC(=O)[C@H](CC(=O)O)NC(=O)[C@H](CO)NC(=O)[C@@H](NC(=O)[C@H](Cc1ccccc1)NC(=O)[C@@H](NC(=O)CNC(=O)[C@H](CCC(=O)O)NC(=O)CNC(=O)[C@@H](N)Cc1c[nH]cn1)[C@@H](C)O)[C@@H](C)O)C(C)C)C(=O)N[C@@H](CCC(=O)O)C(=O)N[C@@H](Cc1ccccc1)C(=O)N[C@@H](CC(C)C)C(=O)N[C@@H](CCCNC(=N)N)C(=O)NCCOCCOCC(=O)N[C@@H](Cc1ccc(O)cc1)C(=O)NCC(=O)N[C@@H](Cc1c[nH]c2ccccc12)C(=O)N[C@@H](CC(C)C)C(=O)N[C@@H](CC(=O)O)C(=O)N[C@@H](Cc1ccccc1)C(N)=O [Compound 91, [Arg27,Leu14,Phe25,Tyr13]Exendin-4(1-27)-Peg3-[Leu4]Gastrin6] (H-HGEGTFTSDLSKYLEEEAVRLFIEFLR[AEEA]YGWLDF-NH2) | 0.068 | 18 |
| CC[C@H](C)[C@H](NC(=O)[C@H](Cc1ccccc1)NC(=O)[C@H](CC(C)C)NC(=O)[C@H](CCCNC(=N)N)NC(=O)[C@@H](NC(=O)[C@H](C)NC(=O)[C@H](CCC(=O)O)NC(=O)[C@H](CCC(=O)O)NC(=O)[C@H](CCC(=O)O)NC(=O)[C@H](CC(C)C)NC(=O)[C@H](Cc1ccc(O)cc1)NC(=O)[C@H](CCCCN)NC(=O)[C@H](CO)NC(=O)[C@H](CC(C)C)NC(=O)[C@H](CCC(=O)O)NC(=O)[C@H](CO)NC(=O)[C@@H](NC(=O)[C@H](Cc1ccccc1)NC(=O)[C@@H](NC(=O)CNC(=O)[C@H](CCC(=O)O)NC(=O)CNC(=O)[C@@H](N)Cc1c[nH]cn1)[C@@H](C)O)[C@@H](C)O)C(C)C)C(=O)N[C@@H](CCC(=O)O)C(=O)N[C@@H](Cc1ccccc1)C(=O)N[C@@H](CC(C)C)C(=O)N[C@@H](CCCCN)C(=O)NCCOCCOCC(=O)N[C@@H](Cc1c[nH]c2ccccc12)C(=O)N[C@@H](CC(C)C)C(=O)N[C@@H](CC(=O)O)C(=O)N[C@@H](Cc1ccccc1)C(N)=O [Compound 97, [Glu9,Leu14,Phe25,Tyr13]Exendin-4(1-27)-Peg3-[Leu2]Gastrin4] (H-HGEGTFTSELSKYLEEEAVRLFIEFLK[AEEA]WLDF-NH2) | 0.06 | 13 |
| CC[C@H](C)[C@H](NC(=O)[C@H](Cc1ccccc1)NC(=O)[C@H](CC(C)C)NC(=O)[C@H](CCCNC(=N)N)NC(=O)[C@@H](NC(=O)[C@H](C)NC(=O)[C@H](CCC(=O)O)NC(=O)[C@H](CCC(=O)O)NC(=O)[C@H](CCC(=O)O)NC(=O)[C@H](CC(C)C)NC(=O)[C@H](Cc1ccc(O)cc1)NC(=O)[C@H](CCCNC(=N)N)NC(=O)[C@H](CO)NC(=O)[C@H](CC(C)C)NC(=O)[C@H](CC(=O)O)NC(=O)[C@H](CO)NC(=O)[C@@H](NC(=O)[C@H](Cc1ccccc1)NC(=O)[C@@H](NC(=O)CNC(=O)[C@H](CCC(=O)O)NC(=O)CNC(=O)[C@@H](N)Cc1c[nH]cn1)[C@@H](C)O)[C@@H](C)O)C(C)C)C(=O)N[C@@H](CCC(=O)O)C(=O)N[C@@H](Cc1ccccc1)C(=O)N[C@@H](CC(C)C)C(=O)N[C@@H](CCCCN)C(=O)NCCOCCOCC(=O)N[C@@H](Cc1ccc(O)cc1)C(=O)NCC(=O)N[C@@H](Cc1c[nH]c2ccccc12)C(=O)N[C@@H](CC(C)C)C(=O)N[C@@H](CC(=O)O)C(=O)N[C@@H](Cc1ccccc1)C(N)=O [Compound 95, [Arg12,Leu14,Phe25,Tyr13]Exendin-4(1-27)-Peg3-[Leu4]Gastrin6] (H-HGEGTFTSDLSRYLEEEAVRLFIEFLK[AEEA]YGWLDF-NH2) | 0.079 | 14 |
| CC[C@H](C)[C@H](NC(=O)[C@H](Cc1ccccc1)NC(=O)[C@H](CC(C)C)NC(=O)[C@H](CCCNC(=N)N)NC(=O)[C@@H](NC(=O)[C@H](C)NC(=O)[C@H](CCC(=O)O)NC(=O)[C@H](CCC(=O)O)NC(=O)[C@H](CCC(=O)O)NC(=O)[C@H](CC(C)C)NC(=O)[C@H](Cc1ccc(O)cc1)NC(=O)[C@H](CCCCN)NC(=O)[C@H](CO)NC(=O)[C@H](CC(C)C)NC(=O)[C@H](CCC(=O)O)NC(=O)[C@H](CO)NC(=O)[C@@H](NC(=O)[C@H](Cc1ccccc1)NC(=O)[C@@H](NC(=O)CNC(=O)[C@H](CCC(=O)O)NC(=O)CNC(=O)[C@@H](N)Cc1c[nH]cn1)[C@@H](C)O)[C@@H](C)O)C(C)C)C(=O)N[C@@H](CCC(=O)O)C(=O)N[C@@H](Cc1ccccc1)C(=O)N[C@@H](CC(C)C)C(=O)N[C@@H](CCCCN)C(=O)NCCOCCOCC(=O)NCCOCCOCC(=O)N[C@@H](Cc1ccc(O)cc1)C(=O)NCC(=O)N[C@@H](Cc1ccccc1)C(=O)N[C@@H](CC(C)C)C(=O)N[C@@H](CC(=O)O)C(=O)N[C@@H](Cc1ccccc1)C(N)=O [Compound 90, [Glu9,Leu14,Phe25,Tyr13]Exendin-4(1-27)-Peg3-Peg3-[Leu4,Phe3]Gastrin6] (H-HGEGTFTSELSKYLEEEAVRLFIEFLK[AEEA][AEEA]YGFLDF-NH2) | 0.032 | 1300 |
| CC[C@H](C)[C@H](NC(=O)[C@H](Cc1ccccc1)NC(=O)[C@H](CC(C)C)NC(=O)[C@H](CCCNC(=N)N)NC(=O)[C@@H](NC(=O)[C@H](C)NC(=O)[C@H](CCC(=O)O)NC(=O)[C@H](CCC(=O)O)NC(=O)[C@H](CCC(=O)O)NC(=O)[C@H](CC(C)C)NC(=O)[C@H](Cc1ccc(O)cc1)NC(=O)[C@H](CCCCN)NC(=O)[C@H](CO)NC(=O)[C@H](CC(C)C)NC(=O)[C@H](CCC(=O)O)NC(=O)[C@H](CO)NC(=O)[C@@H](NC(=O)[C@H](Cc1ccccc1)NC(=O)[C@@H](NC(=O)CNC(=O)[C@H](CCC(=O)O)NC(=O)CNC(=O)[C@@H](N)Cc1c[nH]cn1)[C@@H](C)O)[C@@H](C)O)C(C)C)C(=O)N[C@@H](CCC(=O)O)C(=O)N[C@@H](Cc1ccccc1)C(=O)N[C@@H](CC(C)C)C(=O)N[C@@H](CCCCN)C(=O)N[C@@H](CCCN)C(=O)N[C@@H](CCCN)C(=O)N[C@@H](Cc1c[nH]c2ccccc12)C(=O)N[C@@H](CC(C)C)C(=O)N[C@@H](CC(=O)O)C(=O)N[C@@H](Cc1ccccc1)C(N)=O [Compound 100, [Glu9,Leu14,Phe25,Tyr13]Exendin-4(1-27)-Orn-Orn-[Leu2]Gastrin4] (H-HGEGTFTSELSKYLEEEAVRLFIEFLK[Orn][Orn]WLDF-NH2) | 0.11 | 860 |

Results, then the compound that gave them:

| EC50 [1] [nM] | EC50 [2] [nM] | Compound |
| --- | --- | --- |
| 0.12 | 100 | CC[C@H](C)[C@H](NC(=O)[C@H](Cc1ccccc1)NC(=O)[C@H](CC(C)C)NC(=O)[C@H](CCCNC(=N)N)NC(=O)[C@@H](NC(=O)[C@H](C)NC(=O)[C@H](CCC(=O)O)NC(=O)[C@H](CCC(=O)O)NC(=O)[C@H](CCC(=O)O)NC(=O)[C@H](CC(C)C)NC(=O)[C@H](Cc1ccc(O)cc1)NC(=O)[C@H](CCCCN)NC(=O)[C@H](CO)NC(=O)[C@H](CC(C)C)NC(=O)[C@H](CCC(=O)O)NC(=O)[C@H](CO)NC(=O)[C@@H](NC(=O)[C@H](Cc1ccccc1)NC(=O)[C@@H](NC(=O)CNC(=O)[C@H](CCC(=O)O)NC(=O)CNC(=O)[C@@H](N)Cc1c[nH]cn1)[C@@H](C)O)[C@@H](C)O)C(C)C)C(=O)N[C@@H](CCC(=O)O)C(=O)N[C@@H](Cc1ccccc1)C(=O)N[C@@H](CC(C)C)C(=O)N[C@@H](CCCCN)C(=O)N[C@@H](CCCN)C(=O)NCCOCCOCC(=O)N[C@@H](Cc1ccc(O)cc1)C(=O)NCC(=O)N[C@@H](Cc1c[nH]c2ccccc12)C(=O)N[C@@H](CC(C)C)C(=O)N[C@@H](CC(=O)O)C(=O)N[C@@H](Cc1ccccc1)C(N)=O [Compound 103, [Glu9,Leu14,Phe25,Tyr13]Exendin-4(1-27)-Orn-Peg3-[Leu4]Gastrin6] (H-HGEGTFTSELSKYLEEEAVRLFIEFLK[Orn][AEEA]YGWLDF-NH2) |
| 0.087 | 8.8 | CC[C@H](C)[C@H](NC(=O)[C@H](Cc1ccccc1)NC(=O)[C@H](CC(C)C)NC(=O)[C@H](CCCNC(=N)N)NC(=O)[C@@H](NC(=O)[C@H](C)NC(=O)[C@H](CCC(=O)O)NC(=O)[C@H](CCC(=O)O)NC(=O)[C@H](CCC(=O)O)NC(=O)[C@H](CC(C)C)NC(=O)[C@H](Cc1ccc(O)cc1)NC(=O)[C@H](CCCCN)NC(=O)[C@H](CO)NC(=O)[C@H](CC(C)C)NC(=O)[C@H](CCC(=O)O)NC(=O)[C@H](CO)NC(=O)[C@@H](NC(=O)[C@H](Cc1ccccc1)NC(=O)[C@@H](NC(=O)CNC(=O)[C@H](CCC(=O)O)NC(=O)CNC(=O)[C@@H](N)Cc1c[nH]cn1)[C@@H](C)O)[C@@H](C)O)C(C)C)C(=O)N[C@@H](CCC(=O)O)C(=O)N[C@@H](Cc1ccccc1)C(=O)N[C@@H](CC(C)C)C(=O)N[C@@H](CCCCN)C(=O)NCCOCCOCC(=O)N[C@@H](CCCN)C(=O)N[C@@H](Cc1ccc(O)cc1)C(=O)NCC(=O)N[C@@H](Cc1c[nH]c2ccccc12)C(=O)N[C@@H](CC(C)C)C(=O)N[C@@H](CC(=O)O)C(=O)N[C@@H](Cc1ccccc1)C(N)=O [Compound 104, [Glu9,Leu14,Phe25,Tyr13]Exendin-4(1-27)-Peg3-Orn-[Leu4]Gastrin6] (H-HGEGTFTSELSKYLEEEAVRLFIEFLK[AEEA][Orn]YGWLDF-NH2) |
| 0.11 | 30 | H-HGEGTFTSELSKYLEEEAVRLFIEFLKYGWLDF-NH2 [Compound 101, [Glu9,Leu14,Phe25,Tyr13]Exendin-4(1-27)-[Leu4]Gastrin6] |
